Key:
Format in all cases: cell-based
[1] = test system: Bradykinin B1 agonist-induced secretion of IL-8; assay: Bradykinin B1 agonist-induced secretion of IL-8 in human IMR-90 cells; details: 30 min compound, then 0.1 μM Lys-[Des-Arg9]Bradykinin and 0.1 μM Sar-[D-Phe8]-des-Arg9-Bradykinin for 5 hours
Source text: (§1) 2. Inhibitory Activity on Bradykinin B1 Agonist-Induced Secretion of IL-6 and IL-8 in Human IMR-90 Cells
(§2) The effect of the Compound Examples on secretion of the cytokine IL-6 and IL-8 has been investigated in the human foetal lung fibroblast IMR-90 cell line. Here the induction of the cytokine secretion was induced by the Bradykinin B1 agonists Lys-[Des-Arg9]Bradykinin (CAS 71800-36-7, Tocris Bioscience) and Sar-[D-Phe8]-des-Arg9-Bradykinin (CAS 126959-88-4, Tocris Bioscience) leading to the activation of the Bradykinin B1-driven signalling pathway. The inhibitory activity of the tested Compound Examples on Bradykinin B1 agonist-induced secretion of IL-6 and IL-8 is indicative for the compounds' prominent anti-inflammatory mode of action in kinin driven inflammation.
(§3) IMR-90 cells were cultured in Eagle's Minimum Essential Medium (EMEM) containing 2 mM L-glutamine, 1 g/L glucose, 1.5 g/L NaHCO3, 1 mM sodium pyruvate and non-essential amino acids (ATCC, 30-2003™) supplemented with 10% FBS (Biochrom, S0615) and 50 U/mL Penicillin, 50 μg/mL Streptomycin (PAA, P11-010). The assay was performed in EMEM and a cell density of […] IMR-90 cells/96-well. The Compound Examples have been serial diluted in 100% DMSO and evaluated at 8 different concentrations within the range of 3 nM and 10 μM and a final DMSO concentration of 0.4%. The IMR-90 cells have been incubated with the respective concentration of the compound for 30 min. The enhanced secretion of IL-6 and IL-8 was induced by the stimulation of these cells with 0.1 μM Lys-[Des-Arg9]Bradykinin (Tocris, catalogue no. 3225) and 0.1 μM Sar-[D-Phe8]-des-Arg9-Bradykinin (Tocris, catalogue no. 3230) for 5 hours at 37° C. and 5% CO2. Further, cells have been treated with Lys-[Des-Arg9]Bradykinin and Sar[D-Phe8]-des-Arg9-Bradykinin as neutral control and with 0.1% DMSO as inhibitor control. The amount of IL-6 and IL-8 in the supernatant was determined using the Human ProInflammatory Panel II (4-Plex) (MSD, K15025B) according to manufacturer's instruction. Briefly, supernatants were added onto assay plates and incubated at room temperature for 1-2 h with vigorous shaking at 600 rpm. Detection antibodies were then added onto the supernatants and incubated at room temperature for an additional 1-2 h with vigorous shaking at 600 rpm. Plates were washed three times with phosphate-buffered saline (PBS; 137 mM NaCl, 2.7 mM KC1, 6.5 mM Na2HP04, 1.7 mM KH2P04) containing 0.05% Tween-20 (Bio-Rad, 161-0781) and electrochemiluminescence detected using the MSD Sector Imager 6000 plate reader. The cell viability was measured using the CellTiter-Glo Luminescent Assay (Promega, G7571) following the manufacturers protocol. Briefly, the CellTiter-Glo Reagent was diluted with PBS (1:1) and added directly to cells. After incubation and shaking for 10 minutes luminescent signal was measured which is proportional to the amount of ATP present.
(§4) The effect of the compound on the amount of secreted cytokine has been calculated as 100/(measured cytokine concentration of neutral control-measured cytokine concentration of inhibitor control)*(measured cytokine concentration of compound dose-measured cytokine concentration of inhibitor control). IC50 values are determined using 4-parameter-fit.
(§5) The Compound Examples were tested in triplicates per plate and the inhibitory activity was determined as the relation between neutral and inhibitor control in percent. IC50 values were calculated using the 4-parameter logistic model.

[2] = test system: Bradykinin B1 agonist-induced secretion of IL-6; assay: Bradykinin B1 agonist-induced secretion of IL-6 in human IMR-90 cells; details: 30 min compound, then 0.1 μM Lys-[Des-Arg9]Bradykinin and 0.1 μM Sar-[D-Phe8]-des-Arg9-Bradykinin for 5 hours
Source text: as §1, §2, §3, §4, §5

[3] = target: T1, native human Bradykinin B1 receptor (Homo sapiens, UniProt P46663); assay: Calcium flux assay (FLIPR) with IMR-90 human fibroblasts expressing Bradykinin B1 receptor after IL-1beta induction (hB1 IMR-90); details: IMR-90 human fibroblasts after IL-1beta induction, read-out: hB1 IMR90 IC50
T1 construct: which express native human Bradykinin B1 receptor after induction with human IL-1beta; Coriell Institute; host or cells: IMR-90 human foetal lung fibroblasts, induced with human IL-1beta
T1 sequence (P46663 1-353): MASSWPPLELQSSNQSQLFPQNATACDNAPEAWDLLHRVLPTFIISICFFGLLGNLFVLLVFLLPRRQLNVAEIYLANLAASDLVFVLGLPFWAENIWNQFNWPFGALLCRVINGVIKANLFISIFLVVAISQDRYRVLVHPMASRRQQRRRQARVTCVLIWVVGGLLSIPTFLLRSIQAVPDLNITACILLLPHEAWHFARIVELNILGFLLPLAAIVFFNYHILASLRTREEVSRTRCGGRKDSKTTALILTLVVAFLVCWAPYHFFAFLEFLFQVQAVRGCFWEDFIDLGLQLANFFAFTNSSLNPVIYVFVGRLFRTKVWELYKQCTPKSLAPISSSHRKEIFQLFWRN
Procedure, shortened: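 IMR-90 foetal lung fibroblasts induced with 0.35 ng/mL IL-1beta for 3 h to express native B1 receptor, then loaded with 2.5 μM Fluo-4/AM plus 2.5 mM probenecid for 2 h at 37 °C. Calcium flux read by FLIPR; compounds at 8 concentrations in triplicate, full inhibition defined by 20 μM Lys-(Des-Arg-Leu)-Bradykinin; IC50 derived.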

Compound	IC50 [1] [nM]	IC50 [2] [nM]	IC50 [3] [nM]
O=C(O)c1cc(NC(=O)C2(c3ccc(C(F)(F)F)cc3F)CC2)ccc1-c1cc2ccccc2s1 [Example 1, 2-(1-Benzothiophen-2-yl)-5-[({1-[2-fluoro-4-(trifluoromethyl)phenyl]cyclopropyl}carbonyl)amino]benzoic acid]	245	149	72
CCC(F)(F)c1ccc(-c2ccc(NC(=O)C3(c4ccc(C(F)(F)F)cc4F)CC3)cc2C(=O)O)cn1 [Example 2, 2-[6-(1,1-Difluoropropyl)pyridin-3-yl]-5-[({1-[2-fluoro-4-(trifluoromethyl)-phenyl]cyclopropyl}carbonyl)amino]benzoic acid]	303	113	44
O=C(O)c1cc(NC(=O)C2(c3ccc(C(F)(F)F)cc3F)CC2)ccc1-c1cnn(C2CCC2)c1 [Example 3, 2-(1-Cyclobutyl-1H-pyrazol-4-yl)-5-[({1-[2-fluoro-4-(trifluoromethyl)phenyl]cyclopropyl}carbonyl)amino]benzoic acid]	53	47	12
O=C(O)c1cc(NC(=O)C2(c3ccc(OC(F)(F)F)cc3F)CC2)ccc1-c1ccc(C(F)F)nc1 [Example 5, 2-[6-(Difluoromethyl)pyridin-3-yl]-5-[({1-[2-fluoro-4-(trifluoromethoxy)phenyl]cyclopropyl}carbonyl)amino]benzoic acid]	483	290	2700
O=C(O)c1cc(NC(=O)C2(c3ccc(C(F)(F)F)cc3F)CC2)ccc1-c1ccc(C(F)(F)F)nc1 [Example 6, 5-[({1-[2-Fluoro-4-(trifluoromethyl)phenyl]cyclopropyl}carbonyl)amino]-2-[6-(trifluoromethyl)pyridin-3-yl]benzoic acid]	205	443	550
O=C(O)c1cc(NC(=O)C2(c3ccc(C(F)(F)F)cc3F)CC2)cc(F)c1-c1ccc(C(F)(F)F)nc1 [Example 29, 3-Fluoro-5-[({1-[2-fluoro-4-(trifluoromethyl)phenyl]cyclopropyl}carbonyl)amino]-2-[6-(trifluoromethyl)pyridin-3-yl]benzoic acid]	489	600	21
O=C(O)c1cc(NC(=O)C2(c3ccc(C(F)(F)F)cc3F)CC2)cc(F)c1-c1cnn(C2CCC2)c1 [Example 42, 2-(1-Cyclobutyl-1H-pyrazol-4-yl)-3-fluoro-5-[({1-[2-fluoro-4-(trifluoromethyl)phenyl]cyclopropyl}carbonyl)amino]benzoic acid]	85	70	4.1

— patent US12023319B2, “Carboxylic acid aromatic amides” (priority 2016, dated 2024)
